{
  "source": "paper PMC6857076",
  "about": "(Pharmacology Research & Perspectives, 2019)",
  "key": {"[1]": {"conditions": "unbound, Cav × fu"}, "CRP": {"system": "CRP", "conditions": "RA, cited from earlier work"}, "[2]": {"conditions": "pooled RA clinical studies, cited from earlier work"}, "platelet counts": {"system": "platelet counts", "conditions": "integrated analysis of phase 1b, 2, 3 and LTE RA studies, baricitinib 4 mg QD; cited from earlier work"}, "[3]": {"conditions": "integrated analysis of phase 1b, 2, 3 and LTE RA studies, baricitinib 4 mg QD; cited from earlier work"}, "in vitro": {"experiment": "in vitro", "conditions": "both, human, pooled human plasma"}, "[4]": {"conditions": "human; baricitinib 4 mg QD; cited from earlier work"}, "NK cell counts": {"system": "NK cell counts", "conditions": "RA, baricitinib 4 mg QD, cited from earlier work"}, "[5]": {"biological_target": "recombinant human kinase domain of TYK2 (Homo sapiens, UniProt P29597)", "sequence (P29597 897-1176 limits assumed)": "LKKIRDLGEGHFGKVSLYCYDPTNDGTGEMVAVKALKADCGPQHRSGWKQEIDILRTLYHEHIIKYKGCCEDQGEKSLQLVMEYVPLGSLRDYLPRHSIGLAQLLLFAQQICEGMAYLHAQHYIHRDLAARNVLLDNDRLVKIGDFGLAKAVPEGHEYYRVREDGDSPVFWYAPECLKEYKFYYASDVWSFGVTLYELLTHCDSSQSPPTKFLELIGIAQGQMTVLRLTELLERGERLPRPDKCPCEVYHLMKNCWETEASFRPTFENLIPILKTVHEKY", "experiment": "Enzymatic microfluidic kinase assay, TYK2"}},
  "note": "Like-named read-outs stand apart in the source and are kept apart here.",
  "data": [
    {"smiles": "CCS(=O)(=O)N1CC(CC#N)(n2cc(-c3ncnc4[nH]ccc34)cn2)C1", "note": "[Baricitinib]", "values": [
      {"measurement": "Cav,u", "setting": "[1]; baricitinib 4 mg QD", "value": 16.0, "unit": "nM"},
      {"measurement": "reduction of CRP levels from baseline to week 12", "setting": "CRP; baricitinib 4 mg QD", "value": "approximately −10 mg/L"},
      {"measurement": "herpes zoster incidence rate", "setting": "[2]; baricitinib 2 mg QD", "value": "2.7 events per 100 patient-years"},
      {"measurement": "herpes zoster incidence rate", "setting": "[2]; baricitinib 4 mg QD", "value": "4.3 events per 100 patient-years"},
      {"measurement": "platelet counts vs baseline", "setting": "platelet counts", "value": "initial increase in platelet counts, which then returned toward baseline"},
      {"measurement": "hemoglobin levels vs baseline", "setting": "[3]", "value": "decreased from baseline to week 20, then returned to baseline or higher"},
      {"measurement": "fraction unbound at 6 h, 1 μmol/L", "setting": "in vitro", "value": 0.59},
      {"measurement": "Cav", "setting": "[4]", "value": 27, "unit": "nM"},
      {"measurement": "change from baseline in NK cell counts", "setting": "NK cell counts; week 12", "value": "−57.0", "unit": "cells/mm^3"},
      {"measurement": "change from baseline in NK cell counts", "setting": "NK cell counts; week 24", "value": "−53.4", "unit": "cells/mm^3"},
      {"measurement": "IC50", "setting": "[5]", "value": 14, "unit": "nM"}
    ]},
    {"smiles": "C[C@@H]1CCN(C(=O)CC#N)C[C@@H]1N(C)c1ncnc2[nH]ccc12", "note": "[Tofacitinib]", "values": [
      {"measurement": "Cav,u", "setting": "[1]; tofacitinib 5 mg BID", "value": 41.0, "unit": "nM"},
      {"measurement": "reduction of CRP levels from baseline to week 12", "setting": "CRP; tofacitinib 5 mg BID", "value": -10.1, "unit": "mg/L"}
    ]}
  ]
}
